In PubChem BioAssay (NCI) one finds TGI and GI50 data, which are given here for seven compounds.

Structures are written as SMILES.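 Growth conditions: 96-well plates. Treatment: test compound, 48 hours, 5 concentrations. Analysis: linear interpolation between bracketing concentrations; unreached endpoints set to highest concentration. GI50 is the concentration that inhibits growth by half. The concentration for full growth arrest is given as TGI.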

Some test systems named below: DLD-1 colon; DMS 114 small cell lung; DMS 273 small cell lung; HOP-18 NSCLC; KM20L2 colon; LXFL 529 NSCLC; XF 498 CNS; RXF-631 renal.
Assay in all cases: NCI anticancer screen, dose series, 48 h

Consider `C/C(=N\NC(=O)c1cccnc1)c1cccc(/C(C)=N/NC(=O)c2cccnc2)n1`, for which the TGI in the assay with DLD-1 colon is greater than 100 µM; with DMS 114 small cell lung, 15.9 µM; in the assay with DMS 273 small cell lung, 25.5 µM; in the assay on HOP-18 NSCLC, 6.15 µM; in the assay on KM20L2 colon, greater than 100 µM; in the assay on LXFL 529 NSCLC, greater than 100 µM. Moreover, the GI50 in the assay on DMS 114 small cell lung is 2.7 µM; in the assay on DMS 273 small cell lung, 5.02 µM; in the assay on HOP-18 NSCLC, 1.06 µM; with LXFL 529 NSCLC it was 2.47 µM.
As to `CCOC(=O)C1CCn2c(nc3c2c(=O)n(C)c(=O)n3C)S1` (centres undefined), the TGI with DLD-1 colon, with DMS 273 small cell lung, in the assay with HOP-18 NSCLC, with KM20L2 colon and in the assay on LXFL 529 NSCLC was greater than 100 µM each time.
In the case of `Nc1ccc2c(c1)C(=O)N(O)C2=O`, the TGI in the assay with DLD-1 colon, in the assay on DMS 114 small cell lung, with KM20L2 colon, in the assay with LXFL 529 NSCLC and with XF 498 CNS was greater than 100 µM each time.
With `COC(=O)C1C(C)N1C` (centres undefined), the TGI in the assay on DLD-1 colon, in the assay on DMS 114 small cell lung, with DMS 273 small cell lung, with LXFL 529 NSCLC, in the assay on RXF-631 renal and with XF 498 CNS was greater than 100 µM each time.
Consider `C[C@]12CC[C@@H]3c4ccccc4CC[C@H]3[C@@H]1CC[C@@H]2O`, for which the TGI in the assay on DLD-1 colon, in the assay with DMS 273 small cell lung, in the assay on KM20L2 colon and in the assay with LXFL 529 NSCLC was greater than 100 µM each time.
Regarding `CC(Sc1ccccc1)C(CO)(CO)[N+](=O)[O-]` (centres undefined), the TGI in the assay with DLD-1 colon is 29 µM; in the assay with DMS 114 small cell lung, 32.5 µM; in the assay on DMS 273 small cell lung it was greater than 100 µM; in the assay with HOP-18 NSCLC, 45.6 µM; with KM20L2 colon, 31.7 µM; with LXFL 529 NSCLC it was 27.5 µM.
Consider `CC(=O)N(C)c1ccc2c(ccc[n+]2[O-])c1[N+](=O)[O-]`, for which the TGI in the assay on DLD-1 colon, in the assay on DMS 114 small cell lung, in the assay on DMS 273 small cell lung, in the assay on HOP-18 NSCLC, with KM20L2 colon and with LXFL 529 NSCLC was greater than 100 µM in each case. Further, the TGI in the assay with RXF-631 renal and in the assay on XF 498 CNS was greater than 100 µM throughout.
